Reference: patent US5525626A (priority 1989, dated 1996)
Entries after “also recorded” stand apart in the source; their conditions may differ.

Tests used:
[1] = tested on: DUKX cells; test: growth inhibition of c-myc-expressing tumor cells; assay type: cell-based, Chinese hamsters
Text: a) DUKX cells (ovarian carcinoma cells from Chinese hamsters) which over-express "c-myc" products, were cultivated according to standard conditions, two comparative groups being grown.

[2] = tolerance study in patients with malignant tumors; assay type: in vivo, human
Text: Over 8 consecutive weeks the patients were examined once a week for signs of systemic toxicity and organic dysfunctions.

[3] = tested on: TP 410 N cells; test: growth curve, neuroblastoma cells; assay type: cell-based, human; settings: for Cell count: 25 μM/ml
Protocol: (§1) The neuroblastoma cell line and the three glioblastoma cell lines were cultivated in Ham's F10 medium enriched with 10% fetal calf serum (FCS) and the usual quantity of penicillin, streptomycin (Pen/Strep) and glutamine. The epidermoidal cell line was cultivated in modified Eagle's Medium (MEM), likewise enriched with 10% (FCS) and the usual quantity of glutamine and Pen/Strep.
(§2) In each case 5×10^4 cells were plated out in T25 bottles, the untreated cells being incubated in analogous conditions as control. The cell count was microscopically determined after 3, 5, 7, 10 and 12 days.

[4] = tested on: erythroleukemic cells (K 562); test: photometric cell count / mitochondrial activity; assay type: cell-based; settings: 20 hours, increasing concentrations
Protocol: (§3) Subsequently the cell count was photometrically determined according to Alley M. C. et al., Cancer Research 48, 589-601 (1988). In the process, a colorant is added to the cells that have been mixed with medium, the colorant being so converted by cells with mitochondrial activity that a photometric determination of the cell count is possible.

[5] = tested on: bladder tumor cells; test: photometric cell count / mitochondrial activity; assay type: cell-based; settings: 20 hours, increasing concentrations
Protocol: as §3

[6] = tested on: U 178 MG cells; test: growth curve, glioblastoma cells; assay type: cell-based, human; settings: for Cell count: 25 μM/ml
Protocol: as §1, §2

[7] = tested on: TP 336 MG cells; test: growth curve, glioblastoma cells; assay type: cell-based, human; settings: for Cell count: 10 μM/ml
Protocol: as §1, §2

[8] = tested on: TP 242 MG cells; test: growth curve, glioblastoma cells; assay type: cell-based, human; settings: for Cell count: 25 μM/ml
Protocol: as §1, §2

[9] = tested on: U 178 MG, TP 410 N, TP 242 MG, TP 336 MG and A 431 cells; settings: 37.5 μM/ml, 48 hours
Protocol: as §1
Untreated cells served as a control. Subsequently, the cells were incubated for 8 hours with ^3 H-thymidine. The radioactivity absorbed by the cells was measured in the usual way.

[10] = tested on: MCF 7 cells; test: growth inhibition of breast cancer cells (Table 1, Example 2); assay type: cell-based, human
Text: The MCF 7 cell line from breast cancer was cultivated in DMEM-S 10, enriched with 10% FCS, for 10 days in the usual way.

[11] = tested on: LNCap cells; test: growth inhibition of prostatic carcinoma cells (Table 1); assay type: cell-based, human; settings: 250 μmol/ml, after 10 days
[12] = tested on: g-CCM cells; test: growth inhibition of anaplastic astrocytoma cells (Table 1); assay type: cell-based, human; settings: 200 μmol/ml, after 10 days
[13] = tested on: EJ cells; test: growth inhibition of bladder carcinoma cells (Table 1); assay type: cell-based, human; settings: 200 μmol/ml, after 10 days
[14] = tested on: LNCap cells; test: cell growth in combination with testosterone; assay type: cell-based, human
[15] = tested on: DU-145 cells; test: cell growth, combination with TNF; assay type: cell-based; settings: 7-OH-1,2-BP 500 μM/ml; TNF 1 nM/ml; combination 500 μM/1 nM; 4 days; 3×10^4 cells/well; control 51.86 + 3.06
Text: Various cell lines (DU-145, PC-3 and LNCaP) from prostate carcinomas were used.
Initial cell count: 3×10^4 cells/well; exposure period: DU-145, PC-3: 4 days; LNCaP: 6 days

[16] = tested on: Onco Mouse mammary glands-neoplasms; test: chemoprevention in transgenic mice (mammary glands-neoplasms); assay type: in vivo; settings: 200 μM/ml in drinking water
Protocol: The chemopreventive properties of 7-OH-1,2-BP were tested on transgenic mice of the Onco Mouse™ type (mammary glands-neoplasms): […]

[17] = Homo sapiens, 288 h, 25 μM/ml (Table 2), read-out: % growth inhibition compared with control after 12 days

In the case of `O=c1ccc2ccc(O)cc2o1` [7-OH-1,2-BP, 7-hydroxy-1,2-benzopyrone], the “inhibition of cell growth” value ([1]; 100 μg/ml, 24, 48 and 72 hours, FIG. 10) was “dramatic inhibition of cell growth; also recorded: inhibit the cell growth of tumor cells with oncogene-overexpression”, the “cell growth after removal of substance” value ([1]; 24 hours, then 48 hours in 7-OH-1,2-BP-free medium, FIG. 11b1) was “considerable cell growth” and the “inhibition of cell growth, second cultivation in presence of substance” value ([1]; 24 hours, trypsin, then 48 hours in 7-OH-1,2-BP-containing medium, FIG. 11b2) was “cell growth was virtually completely inhibited”. For the same compound, the side-effects ([2]; 50 mg/day increased up to 2000 mg/day, 8 weeks, 60 patients) was “no side-effects at all had occurred”, the toxic side-effects ([2]; long-term administration, 7000 mg/day) was “Toxic side-effects were not observed” and the Cell count ([3]; after 3 days, control 25) was 8 × 10^4. For the same compound, the Cell count ([3]; after 5 days, control 45) was 20 × 10^4, the Cell count ([3]; after 7 days, control 71) was 36 × 10^4 and the inhibition at 25 µM ([3]; Homo sapiens, Neuroblastoma cell, 288 h, 25 μM/ml (Table 2), read-out: % growth inhibition compared with control after 12 days) was 62%. For the same compound, the “inhibition of mitochondrial activity” value [4] was “a dosage-related inhibition of the mitochondrial activity occurs”, the “inhibition of mitochondrial activity” value [5] was “a dosage-related inhibition of the mitochondrial activity occurs” and the Cell count ([6]; after 3 days, control 23) was 15 × 10^4. The Cell count ([6]; after 5 days, control 57) was 13 × 10^4, the Cell count ([6]; after 7 days, control 84) was 26 × 10^4 and the inhibition at 25 µM [6, 17] was 74%. For the same compound, the Cell count ([7]; after 3 days, control 13) was 7 × 10^4, the Cell count ([7]; after 5 days, control 25) was 11 × 10^4 and the Cell count ([7]; after 7 days, control 39) was 22 × 10^4. The Cell count ([7]; after 10 days, control 34) was 18 × 10^4, the Cell count ([7]; after 12 days, control 45) was 18 × 10^4 and the inhibition at 10 µM ([7]; Homo sapiens, 288 h, 10 μM/ml (Table 2), read-out: % growth inhibition compared with control after 12 days) was 60%. For the same compound, the Cell count ([8]; after 3 days, control 10) was 4 × 10^4, the Cell count ([8]; after 5 days, control 15) was 6 × 10^4 and the Cell count ([8]; after 7 days, control 23) was 8 × 10^4. For the same compound, the Cell count ([8]; after 10 days, control 49) was 10 × 10^4, the Cell count ([8]; after 12 days, control 57) was 12 × 10^4 and the inhibition at 25 µM [8, 17] was 79%. For the same compound, the “cytotoxic / cytostatic effect” value [9] was “not cytotoxic for any of the cells, but cytostatic”, the “% Growth inhibition compared with control” value (“% Growth inhibition” for short) ([10]; 200 μmol/ml, after 10 days) was 64% and the “cytostatic effect on breast cancer cells” value ([10]; Example 2, FIG. 1) was “clearly show the cytostatic effect”. The “% Growth inhibition” value [11] was 66%, the “% Growth inhibition” value [12] was 44% and the “% Growth inhibition” value [13] was 26%. For the same compound, the “inhibition of cell growth” value ([14]; 500 μM 7-OH-1,2-BP/ml medium combined with 20 nM testosterone) was “virtually complete inhibition of cell growth”, the “increase of growth inhibition by additional hormone therapy” value ([14]; for example testosterone) was “can be increased by additional hormone therapy” and the Cell growth [15] was 38.30 + 2.92. The “Tumor incidence (number of mice)” value ([16]; without substance 9/28) was 3/38 and the Tumor incidence % ([16]; without substance 32) was 8%.
